Where two headings read alike, the source gives them in different places. Values belong to the compound of their own block, whether it stands above or below them.
Experiments:
Experiment in all cases: biochemical
Design in all cases: DiscoveRx KINOMEscan active site-directed competition binding; percent of control kinase bound to immobilised ligand
[1] = target: PIK3CA(H1047L) (Homo sapiens, UniProt P42336, H1047L)
[2] = target: T1, PFTAIRE2 (Homo sapiens, UniProt Q96Q40)
T1 construct: gene CDK15
T1 sequence (Q96Q40 whole entry): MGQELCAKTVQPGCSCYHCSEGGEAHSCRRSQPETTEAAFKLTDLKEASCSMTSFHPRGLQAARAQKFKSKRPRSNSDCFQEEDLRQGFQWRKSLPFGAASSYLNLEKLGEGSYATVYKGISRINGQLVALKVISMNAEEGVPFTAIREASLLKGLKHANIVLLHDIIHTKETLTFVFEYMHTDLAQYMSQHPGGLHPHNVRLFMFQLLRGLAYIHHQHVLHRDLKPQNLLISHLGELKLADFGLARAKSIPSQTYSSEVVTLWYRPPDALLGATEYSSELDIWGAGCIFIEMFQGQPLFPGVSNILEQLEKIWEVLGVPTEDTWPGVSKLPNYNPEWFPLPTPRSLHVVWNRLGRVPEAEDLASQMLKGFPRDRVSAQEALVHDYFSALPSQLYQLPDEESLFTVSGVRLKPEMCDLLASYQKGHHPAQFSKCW

[3] = target: DAPK3 (Homo sapiens, UniProt O43293)
[4] = target: EGFR(G719S) (Homo sapiens, UniProt P00533, G719S)
Chain of EGFR(G719S) (P00533 whole entry G719S): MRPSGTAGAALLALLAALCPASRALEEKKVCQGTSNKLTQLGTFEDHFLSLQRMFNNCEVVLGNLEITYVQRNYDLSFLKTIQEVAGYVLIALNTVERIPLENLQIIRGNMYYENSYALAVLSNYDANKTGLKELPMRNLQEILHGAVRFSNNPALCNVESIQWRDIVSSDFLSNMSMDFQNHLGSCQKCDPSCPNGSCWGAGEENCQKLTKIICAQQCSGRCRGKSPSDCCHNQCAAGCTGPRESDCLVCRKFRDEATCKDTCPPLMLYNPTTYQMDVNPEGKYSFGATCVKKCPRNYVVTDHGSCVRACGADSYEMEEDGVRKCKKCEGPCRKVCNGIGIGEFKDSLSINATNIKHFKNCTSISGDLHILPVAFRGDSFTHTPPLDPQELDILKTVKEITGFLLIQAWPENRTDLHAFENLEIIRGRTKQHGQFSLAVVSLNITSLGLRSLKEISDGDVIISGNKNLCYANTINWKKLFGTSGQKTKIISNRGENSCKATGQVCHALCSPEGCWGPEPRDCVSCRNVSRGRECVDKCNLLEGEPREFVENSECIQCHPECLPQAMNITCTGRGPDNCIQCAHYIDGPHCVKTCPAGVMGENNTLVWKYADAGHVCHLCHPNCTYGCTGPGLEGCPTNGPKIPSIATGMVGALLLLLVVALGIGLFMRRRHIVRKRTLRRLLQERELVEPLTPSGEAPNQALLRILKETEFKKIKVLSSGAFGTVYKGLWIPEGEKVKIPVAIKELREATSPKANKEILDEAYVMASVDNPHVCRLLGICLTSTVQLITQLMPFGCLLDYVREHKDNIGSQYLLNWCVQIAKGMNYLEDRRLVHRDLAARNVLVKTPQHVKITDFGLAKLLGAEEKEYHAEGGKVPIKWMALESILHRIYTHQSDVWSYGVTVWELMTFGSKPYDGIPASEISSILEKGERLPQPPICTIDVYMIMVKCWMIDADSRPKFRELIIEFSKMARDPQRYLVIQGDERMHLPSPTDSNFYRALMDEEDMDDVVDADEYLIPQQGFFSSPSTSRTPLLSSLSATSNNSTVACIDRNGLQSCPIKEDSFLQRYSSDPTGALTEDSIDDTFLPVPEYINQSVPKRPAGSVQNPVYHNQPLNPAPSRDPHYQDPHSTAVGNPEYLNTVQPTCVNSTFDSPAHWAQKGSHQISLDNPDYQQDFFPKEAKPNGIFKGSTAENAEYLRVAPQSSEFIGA

[5] = target: T2, STK36 (Homo sapiens, UniProt Q9NRP7)
T2 sequence (Q9NRP7 1-1315): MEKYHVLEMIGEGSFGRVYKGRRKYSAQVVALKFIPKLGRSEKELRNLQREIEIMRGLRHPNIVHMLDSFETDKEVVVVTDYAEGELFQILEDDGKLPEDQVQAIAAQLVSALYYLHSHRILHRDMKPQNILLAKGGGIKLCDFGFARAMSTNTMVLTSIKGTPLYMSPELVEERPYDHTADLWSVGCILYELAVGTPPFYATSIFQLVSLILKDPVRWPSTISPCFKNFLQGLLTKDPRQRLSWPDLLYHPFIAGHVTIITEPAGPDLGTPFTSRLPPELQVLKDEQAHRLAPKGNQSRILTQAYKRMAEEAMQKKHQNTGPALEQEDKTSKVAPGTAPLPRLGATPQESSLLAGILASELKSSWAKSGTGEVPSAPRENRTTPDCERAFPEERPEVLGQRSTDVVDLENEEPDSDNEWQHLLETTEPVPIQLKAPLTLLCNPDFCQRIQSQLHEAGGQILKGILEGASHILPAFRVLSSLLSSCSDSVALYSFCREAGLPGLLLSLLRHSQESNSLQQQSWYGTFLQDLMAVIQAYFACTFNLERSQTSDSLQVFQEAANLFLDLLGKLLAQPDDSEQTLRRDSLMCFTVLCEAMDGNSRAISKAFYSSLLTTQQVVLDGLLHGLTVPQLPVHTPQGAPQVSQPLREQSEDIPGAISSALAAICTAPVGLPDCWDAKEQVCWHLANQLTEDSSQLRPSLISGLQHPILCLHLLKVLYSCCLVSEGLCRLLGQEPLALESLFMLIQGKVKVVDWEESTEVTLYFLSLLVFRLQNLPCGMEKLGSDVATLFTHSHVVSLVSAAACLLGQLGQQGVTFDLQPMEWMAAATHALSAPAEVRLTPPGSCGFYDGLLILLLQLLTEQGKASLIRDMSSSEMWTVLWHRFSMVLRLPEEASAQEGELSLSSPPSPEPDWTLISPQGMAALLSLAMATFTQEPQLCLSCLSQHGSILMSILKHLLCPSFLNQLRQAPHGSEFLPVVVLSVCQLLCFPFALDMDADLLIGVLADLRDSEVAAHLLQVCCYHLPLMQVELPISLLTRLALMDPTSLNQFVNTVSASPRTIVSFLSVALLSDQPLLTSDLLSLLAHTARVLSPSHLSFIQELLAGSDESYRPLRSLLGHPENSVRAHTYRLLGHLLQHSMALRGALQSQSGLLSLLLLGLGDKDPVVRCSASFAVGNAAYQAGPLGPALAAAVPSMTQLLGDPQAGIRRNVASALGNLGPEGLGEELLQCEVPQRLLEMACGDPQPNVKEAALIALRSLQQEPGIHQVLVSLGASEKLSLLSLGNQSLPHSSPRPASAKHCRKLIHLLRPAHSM

[6] = target: CAMK1G (Homo sapiens, UniProt Q96NX5)
[7] = target: CAMKK1 (Homo sapiens, UniProt Q8N5S9)
Chain of CAMKK1 (Q8N5S9 whole entry): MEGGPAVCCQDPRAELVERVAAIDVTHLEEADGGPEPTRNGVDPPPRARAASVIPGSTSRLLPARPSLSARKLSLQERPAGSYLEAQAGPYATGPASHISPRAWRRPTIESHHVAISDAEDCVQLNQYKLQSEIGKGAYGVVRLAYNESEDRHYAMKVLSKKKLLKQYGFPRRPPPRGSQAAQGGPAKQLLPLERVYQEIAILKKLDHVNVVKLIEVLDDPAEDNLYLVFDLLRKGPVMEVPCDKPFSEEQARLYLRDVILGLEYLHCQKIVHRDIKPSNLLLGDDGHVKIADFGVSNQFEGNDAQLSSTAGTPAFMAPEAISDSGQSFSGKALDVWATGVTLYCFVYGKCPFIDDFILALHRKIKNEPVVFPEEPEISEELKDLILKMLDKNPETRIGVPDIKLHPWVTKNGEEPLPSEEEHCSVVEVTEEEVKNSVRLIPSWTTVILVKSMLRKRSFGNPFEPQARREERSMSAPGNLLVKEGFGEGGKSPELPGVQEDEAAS

[8] = target: T3, TLK1 (Homo sapiens, UniProt Q9UKI8)
T3 sequence (Q9UKI8 1-766): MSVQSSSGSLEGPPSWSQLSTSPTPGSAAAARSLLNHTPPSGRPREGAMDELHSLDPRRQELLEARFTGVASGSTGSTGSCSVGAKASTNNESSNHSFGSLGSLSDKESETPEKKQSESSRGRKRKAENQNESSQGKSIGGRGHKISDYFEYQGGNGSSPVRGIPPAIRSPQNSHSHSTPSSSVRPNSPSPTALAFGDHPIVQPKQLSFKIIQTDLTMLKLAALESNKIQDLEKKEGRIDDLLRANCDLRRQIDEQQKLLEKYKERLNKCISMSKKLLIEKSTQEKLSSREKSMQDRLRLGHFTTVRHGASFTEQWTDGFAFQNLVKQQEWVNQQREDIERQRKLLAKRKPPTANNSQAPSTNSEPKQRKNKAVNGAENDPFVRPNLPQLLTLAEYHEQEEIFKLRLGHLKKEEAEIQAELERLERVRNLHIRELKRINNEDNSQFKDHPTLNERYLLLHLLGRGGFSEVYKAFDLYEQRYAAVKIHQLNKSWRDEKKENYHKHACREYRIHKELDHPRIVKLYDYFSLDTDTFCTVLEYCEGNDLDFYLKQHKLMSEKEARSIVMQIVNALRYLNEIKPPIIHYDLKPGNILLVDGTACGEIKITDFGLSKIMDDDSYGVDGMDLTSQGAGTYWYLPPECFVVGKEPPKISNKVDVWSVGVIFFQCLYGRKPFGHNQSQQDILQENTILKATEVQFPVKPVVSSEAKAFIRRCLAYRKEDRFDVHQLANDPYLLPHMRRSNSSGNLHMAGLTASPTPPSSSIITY

[9] = target: MYO3A (Homo sapiens, UniProt Q8NEV4)
Chain of MYO3A (Q8NEV4 whole entry): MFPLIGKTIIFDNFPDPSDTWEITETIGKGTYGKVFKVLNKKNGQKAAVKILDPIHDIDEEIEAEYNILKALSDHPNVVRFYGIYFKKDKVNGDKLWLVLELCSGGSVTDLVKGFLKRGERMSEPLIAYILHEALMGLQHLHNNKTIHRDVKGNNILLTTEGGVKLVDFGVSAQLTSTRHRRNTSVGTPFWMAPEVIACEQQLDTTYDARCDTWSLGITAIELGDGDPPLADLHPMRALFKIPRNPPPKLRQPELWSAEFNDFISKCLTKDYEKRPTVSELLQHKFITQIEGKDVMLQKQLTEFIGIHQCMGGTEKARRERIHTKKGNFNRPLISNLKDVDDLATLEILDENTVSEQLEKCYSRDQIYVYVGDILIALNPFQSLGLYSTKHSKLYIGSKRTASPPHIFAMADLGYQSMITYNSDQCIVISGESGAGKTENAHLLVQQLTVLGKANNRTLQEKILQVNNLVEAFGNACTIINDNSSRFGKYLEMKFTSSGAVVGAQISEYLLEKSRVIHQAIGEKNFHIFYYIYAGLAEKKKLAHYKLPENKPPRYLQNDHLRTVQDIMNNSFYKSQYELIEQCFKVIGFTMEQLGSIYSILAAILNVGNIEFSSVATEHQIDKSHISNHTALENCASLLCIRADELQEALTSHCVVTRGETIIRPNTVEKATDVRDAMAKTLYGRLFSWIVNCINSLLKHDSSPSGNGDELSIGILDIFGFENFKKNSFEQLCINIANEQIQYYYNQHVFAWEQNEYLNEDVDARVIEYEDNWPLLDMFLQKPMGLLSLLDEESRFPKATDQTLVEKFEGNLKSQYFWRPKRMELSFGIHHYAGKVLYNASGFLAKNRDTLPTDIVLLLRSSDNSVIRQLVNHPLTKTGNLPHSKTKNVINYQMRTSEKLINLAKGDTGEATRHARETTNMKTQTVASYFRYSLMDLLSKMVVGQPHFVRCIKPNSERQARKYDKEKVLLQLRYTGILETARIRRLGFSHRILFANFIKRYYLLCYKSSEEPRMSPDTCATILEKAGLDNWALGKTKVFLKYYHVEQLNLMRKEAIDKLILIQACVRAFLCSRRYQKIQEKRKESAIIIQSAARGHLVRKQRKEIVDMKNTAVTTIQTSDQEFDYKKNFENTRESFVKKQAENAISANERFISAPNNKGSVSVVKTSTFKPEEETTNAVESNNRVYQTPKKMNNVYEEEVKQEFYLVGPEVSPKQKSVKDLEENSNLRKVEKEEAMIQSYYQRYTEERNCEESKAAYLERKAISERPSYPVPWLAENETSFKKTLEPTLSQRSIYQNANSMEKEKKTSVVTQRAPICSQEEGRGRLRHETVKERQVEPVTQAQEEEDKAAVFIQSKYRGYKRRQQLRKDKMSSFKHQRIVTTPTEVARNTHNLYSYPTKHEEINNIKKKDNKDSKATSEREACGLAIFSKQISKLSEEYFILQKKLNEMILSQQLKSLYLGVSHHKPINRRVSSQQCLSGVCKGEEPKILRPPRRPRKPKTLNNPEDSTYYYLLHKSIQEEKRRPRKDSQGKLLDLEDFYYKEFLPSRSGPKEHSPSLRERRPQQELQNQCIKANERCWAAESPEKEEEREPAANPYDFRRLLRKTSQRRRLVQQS

[10] = read-out: Olaparib / %Ctrl @ 10000nM
[11] = read-out: Talazoparib (BMN 673) / %Ctrl @ 10000nM
[12] = read-out: Rucaparib / %Ctrl @ 10000nM, binding competition, % of control
[13] = read-out: Niraparib (MK-4827) / %Ctrl @ 10000nM

Chain of PIK3CA(H1047L) (P42336 whole entry H1047L): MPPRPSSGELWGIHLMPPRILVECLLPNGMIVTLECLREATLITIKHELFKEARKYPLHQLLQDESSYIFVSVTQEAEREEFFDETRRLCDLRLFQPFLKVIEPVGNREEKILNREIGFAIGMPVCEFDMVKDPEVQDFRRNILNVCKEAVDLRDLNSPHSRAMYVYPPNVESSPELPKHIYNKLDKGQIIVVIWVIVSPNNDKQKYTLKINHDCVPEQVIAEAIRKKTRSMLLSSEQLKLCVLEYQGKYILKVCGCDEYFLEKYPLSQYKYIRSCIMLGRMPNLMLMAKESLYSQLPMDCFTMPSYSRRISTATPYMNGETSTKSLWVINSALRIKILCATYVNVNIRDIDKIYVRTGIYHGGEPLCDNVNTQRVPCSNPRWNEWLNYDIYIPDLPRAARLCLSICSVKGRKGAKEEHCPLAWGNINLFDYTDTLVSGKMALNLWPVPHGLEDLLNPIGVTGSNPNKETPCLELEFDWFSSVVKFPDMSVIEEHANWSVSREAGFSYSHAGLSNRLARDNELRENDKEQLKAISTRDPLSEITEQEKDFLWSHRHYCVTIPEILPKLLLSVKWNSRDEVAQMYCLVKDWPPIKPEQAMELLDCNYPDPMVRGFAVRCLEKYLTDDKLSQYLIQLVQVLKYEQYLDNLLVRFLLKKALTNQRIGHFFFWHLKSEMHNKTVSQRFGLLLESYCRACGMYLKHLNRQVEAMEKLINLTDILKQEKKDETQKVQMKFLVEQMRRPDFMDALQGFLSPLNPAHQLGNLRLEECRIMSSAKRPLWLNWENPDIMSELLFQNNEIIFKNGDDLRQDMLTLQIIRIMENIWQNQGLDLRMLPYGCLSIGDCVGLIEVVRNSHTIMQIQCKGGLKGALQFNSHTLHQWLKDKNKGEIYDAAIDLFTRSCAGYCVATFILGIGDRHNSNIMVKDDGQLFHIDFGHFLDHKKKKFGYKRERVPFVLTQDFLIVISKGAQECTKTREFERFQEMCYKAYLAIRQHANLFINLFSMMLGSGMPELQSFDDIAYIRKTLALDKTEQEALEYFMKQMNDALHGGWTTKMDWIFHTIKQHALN

percent of control binding at 10 µM [1, 10]: 87% | percent of control binding at 10 µM [2, 10]: 100% | percent of control binding at 10 µM [3, 10]: 93% | percent of control binding at 10 µM [4, 10]: 94% | percent of control binding at 10 µM [5, 10]: 96% | percent of control binding at 10 µM [6, 10]: 93% | percent of control binding at 10 µM [7, 10]: 88% | percent of control binding at 10 µM [8, 10]: 94% | percent of control binding at 10 µM [9, 10]: 100%
SMILES: O=C(c1cc(Cc2n[nH]c(=O)c3ccccc23)ccc1F)N1CCN(C(=O)C2CC2)CC1 [Olaparib]

percent of control binding at 10 µM [1, 11]: 100% | percent of control binding at 10 µM [2, 11]: 100% | percent of control binding at 10 µM [3, 11]: 87% | percent of control binding at 10 µM [4, 11]: 99% | percent of control binding at 10 µM [5, 11]: 56% | percent of control binding at 10 µM [6, 11]: 100% | percent of control binding at 10 µM [7, 11]: 97% | percent of control binding at 10 µM [8, 11]: 99% | percent of control binding at 10 µM [9, 11]: 83%
SMILES: Cn1ncnc1[C@H]1c2n[nH]c(=O)c3cc(F)cc(c23)N[C@@H]1c1ccc(F)cc1 [Talazoparib]

percent of control binding at 10 µM [1, 12]: 87% | percent of control binding at 10 µM [2, 12]: 100% | percent of control binding at 10 µM [3, 12]: 24% | percent of control binding at 10 µM [4, 12]: 89% | percent of control binding at 10 µM [5, 12]: 69% | percent of control binding at 10 µM [6, 12]: 89% | percent of control binding at 10 µM [7, 12]: 66% | percent of control binding at 10 µM [8, 12]: 94% | percent of control binding at 10 µM [9, 12]: 42%
SMILES: CNCc1ccc(-c2[nH]c3cc(F)cc4c3c2CCNC4=O)cc1 [Rucaparib]

SMILES: NC(=O)c1cccc2cn(-c3ccc([C@@H]4CCCNC4)cc3)nc12 [Niraparib]
percent of control binding at 10 µM [1, 13]: 100% | percent of control binding at 10 µM [2, 13]: 96% | percent of control binding at 10 µM [3, 13]: 69% | percent of control binding at 10 µM [4, 13]: 74% | percent of control binding at 10 µM [5, 13]: 88% | percent of control binding at 10 µM [6, 13]: 100% | percent of control binding at 10 µM [7, 13]: 88% | percent of control binding at 10 µM [8, 13]: 85% | percent of control binding at 10 µM [9, 13]: 72%

Reference: publication PMC7026418, “The kinase polypharmacology landscape of clinical PARP inhibitors” (Scientific Reports, 2020)
